Eleven molecules from ChEMBL document CHEMBL1201862, “PubChem BioAssay data set” (2004) can be followed below.

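Exposure lasted 48 hours, with cells grown in 96-well plates and compounds tested at five concentrations. Here, GI50 denotes the concentration required for 50% inhibition of growth.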 Activity calls are given as the source filed them. Rule as the data show it: active = GI50 up to about 1.1 µM and inactive = higher.

Among the test systems are IGROV-1; Hs-578T; RPMI-8226; NCI-H460; PC-3; A549; M14; Malme-3M; EKVX; NCI/ADR-RES; UACC-62; SK-MEL-2; SK-OV-3; OVCAR-3; NCI-H23; LOX IMVI; SF-295; MDA-MB-231; CAKI-1; HCC 2998.
Experiment in all cases: inhibition of tumour cell growth, NCI panel, 48 h

`O=[N+]([O-])c1ccc(C[S+]([O-])Cc2ccccc2)cc1` (stereo not drawn): the GI50 in the assay with IGROV-1, in the assay with Hs-578T, in the assay on RPMI-8226, in the assay with NCI-H460, in the assay with PC-3 and in the assay with A549 was > 100 µM (inactive) throughout. The GI50 with M14, in the assay with Malme-3M, in the assay with EKVX, with NCI/ADR-RES, in the assay with UACC-62 and with SK-MEL-2 was > 100 µM (inactive) throughout. Besides, the GI50 with SK-OV-3, in the assay on OVCAR-3, in the assay on NCI-H23, with LOX IMVI, in the assay with SF-295 and with MDA-MB-231 was > 100 µM (inactive) in each case. Besides, the GI50 in the assay with CAKI-1 was > 100 µM (inactive).
Take `Cc1ccc2nc(-c3ccc(-n4c(C)nc(=O)c(-c5ccc(F)cc5)c4C)cc3)sc2c1`: the GI50 in the assay with IGROV-1 is 14.2 µM (inactive); in the assay on Hs-578T it was 25.9 µM (inactive); in the assay with RPMI-8226, 4.06 µM (inactive); in the assay with PC-3, 12.4 µM (inactive); in the assay with A549 it was 14.7 µM (inactive); in the assay on M14, 12.7 µM (inactive). In addition, the GI50 was 14.5 µM (inactive) in the assay on Malme-3M; 13.5 µM (inactive) with EKVX; 15 µM (inactive) with NCI/ADR-RES; 19.1 µM (inactive) with SK-MEL-2; 15.1 µM (inactive) with SK-OV-3; 13.9 µM (inactive) with OVCAR-3. Also, the GI50 in the assay with NCI-H23 was 16.3 µM (inactive); with LOX IMVI it was 22.7 µM (inactive); with SF-295 it was 17.5 µM (inactive); in the assay on MDA-MB-231, 14.1 µM (inactive); with CAKI-1 it was 17.8 µM (inactive).
As to `COC(=O)c1c(O)c2c(c3c1OC(C)(C)CC3)OC(C)(C)CC2`, the GI50 is 19.6 µM (inactive) in the assay on IGROV-1; 20.8 µM (inactive) in the assay with Hs-578T; 22.3 µM (inactive) with NCI-H460; 16.4 µM (inactive) in the assay on HCC 2998; 17 µM (inactive) with PC-3; 20.5 µM (inactive) in the assay with A549. The GI50 in the assay on M14 was 19.1 µM (inactive); in the assay on Malme-3M, 0.824 µM (active); in the assay with EKVX, 21.2 µM (inactive); with NCI/ADR-RES, 22.1 µM (inactive); with UACC-62, 18.9 µM (inactive); in the assay with SK-OV-3, 27.3 µM (inactive). In addition, the GI50 with OVCAR-3 is 20 µM (inactive); in the assay with NCI-H23, 20.1 µM (inactive); in the assay with SF-295, 17 µM (inactive); in the assay on MDA-MB-231, 13.7 µM (inactive); with CAKI-1, 21.8 µM (inactive).
For `O=C1[C@@H]2Cc3c([nH]c4ccccc34)C(C3CCCCC3)N2C(=O)[C@@H]2CCCN12` (stereo partly drawn), the GI50 is 29.6 µM (inactive) in the assay on IGROV-1; 27.9 µM (inactive) in the assay with Hs-578T; 21.3 µM (inactive) in the assay with RPMI-8226; 22.3 µM (inactive) in the assay on PC-3; 33.1 µM (inactive) with A549; 37.8 µM (inactive) with M14. Moreover, the GI50 with Malme-3M was 18.9 µM (inactive); in the assay with EKVX, 33.5 µM (inactive); in the assay on NCI/ADR-RES, 22 µM (inactive); in the assay with UACC-62 it was 17.3 µM (inactive); with SK-MEL-2, 20 µM (inactive); with SK-OV-3, 46.9 µM (inactive). The GI50 is 20.4 µM (inactive) in the assay on OVCAR-3; 38.1 µM (inactive) in the assay with NCI-H23; 28.3 µM (inactive) in the assay with LOX IMVI; 21.1 µM (inactive) with SF-295; 21.1 µM (inactive) with MDA-MB-231; 31.7 µM (inactive) in the assay on CAKI-1.
As to `COc1ccc(-c2oc3c(CC(=O)O)cccc3c(=O)c2OC)cc1`, the GI50 with IGROV-1, in the assay on Hs-578T, in the assay on HCC 2998, in the assay on PC-3, with A549 and with M14 was > 100 µM (inactive) each time. Further, the GI50 in the assay with Malme-3M, with EKVX, in the assay on NCI/ADR-RES, with UACC-62, with SK-MEL-2 and in the assay with SK-OV-3 was > 100 µM (inactive) throughout. Moreover, the GI50 was > 100 µM (inactive) with OVCAR-3; > 100 µM (inactive) in the assay with NCI-H23; > 100 µM (inactive) in the assay with SF-295; > 100 µM (inactive) in the assay on MDA-MB-231; 21.6 µM (inactive) in the assay with CAKI-1.
As to `Nc1ccn([C@@H]2C=C(CO)[C@@H](O)[C@H]2O)c(=O)n1`, the GI50 is 0.108 µM (active) in the assay on IGROV-1; 2.24 µM (inactive) with Hs-578T; 0.0593 µM (active) in the assay with NCI-H460; 1.29 µM (inactive) in the assay on HCC 2998; 0.0555 µM (active) in the assay on PC-3; 0.0592 µM (active) in the assay on A549. The GI50 was 0.186 µM (active) in the assay on M14; 1.86 µM (inactive) with Malme-3M; 0.562 µM (active) in the assay on EKVX; 0.092 µM (active) in the assay with NCI/ADR-RES; 0.227 µM (active) in the assay with UACC-62; 10 µM (inactive) with SK-MEL-2. Moreover, the GI50 was 0.248 µM (active) with SK-OV-3; 2.2 µM (inactive) with OVCAR-3; 0.169 µM (active) with NCI-H23; 0.0667 µM (active) with LOX IMVI; 0.155 µM (active) in the assay with SF-295; 0.467 µM (active) in the assay on MDA-MB-231. For the same molecule, the GI50 in the assay with CAKI-1 was 0.101 µM (active).
Take `CO[C@]12C[C@H](CNC(=O)c3ccc[nH]3)O[C@H]1NC(=O)N2`: the GI50 with IGROV-1, with Hs-578T, in the assay with RPMI-8226, in the assay on NCI-H460, in the assay on PC-3 and in the assay with A549 was > 100 µM (inactive) throughout. In addition, the GI50 in the assay with M14, in the assay on Malme-3M, with EKVX, with NCI/ADR-RES, in the assay with UACC-62 and with SK-MEL-2 was > 100 µM (inactive) in each case. Besides, the GI50 in the assay on SK-OV-3, in the assay with OVCAR-3, in the assay with NCI-H23, with LOX IMVI, with SF-295 and in the assay on MDA-MB-231 was > 100 µM (inactive) throughout. Moreover, the GI50 in the assay on CAKI-1 is > 100 µM (inactive).
On to `Oc1cc(CN2COc3ccccc32)c(O)cc1CNC1CCCCC1`, for which the GI50 was 32.8 µM (inactive) in the assay with IGROV-1; 28.7 µM (inactive) in the assay with Hs-578T; 23.8 µM (inactive) in the assay with RPMI-8226; 17.1 µM (inactive) in the assay on NCI-H460; 19.3 µM (inactive) in the assay on PC-3; > 100 µM (inactive) in the assay with A549. In addition, the GI50 in the assay on M14 was 31.3 µM (inactive); with Malme-3M, 18.9 µM (inactive); in the assay with EKVX, 17.3 µM (inactive); with NCI/ADR-RES it was 37.2 µM (inactive); in the assay on UACC-62, 23.9 µM (inactive); with SK-MEL-2, 23.3 µM (inactive). Besides, the GI50 with SK-OV-3 is 64.9 µM (inactive); in the assay with OVCAR-3 it was 26.2 µM (inactive); in the assay with NCI-H23, 22.3 µM (inactive); in the assay on LOX IMVI it was 16.6 µM (inactive); with SF-295, > 100 µM (inactive); in the assay with MDA-MB-231, 21.9 µM (inactive). Besides, the GI50 in the assay with CAKI-1 is 28.3 µM (inactive).
`Cc1cc(CCC(=O)NCCNc2c3ccccc3nc3ccccc23)cc(C)c1O[Si](C)(C)C(C)(C)C`: the GI50 in the assay on IGROV-1 is 1.76 µM (inactive); in the assay on Hs-578T, 2.01 µM (inactive); in the assay on RPMI-8226, 0.331 µM (active); with NCI-H460, 0.762 µM (active); with PC-3 it was 1.55 µM (inactive); in the assay with A549 it was 0.638 µM (active). Besides, the GI50 in the assay with M14 is 1.66 µM (inactive); with Malme-3M, 2.06 µM (inactive); with EKVX, 1.6 µM (inactive); with NCI/ADR-RES it was 1.81 µM (inactive); in the assay on UACC-62, 14.5 µM (inactive); with SK-MEL-2, 1.91 µM (inactive). Also, the GI50 in the assay with SK-OV-3 is 1.61 µM (inactive); with OVCAR-3 it was 1.96 µM (inactive); in the assay with NCI-H23, 1.93 µM (inactive); in the assay on LOX IMVI, 0.148 µM (active); in the assay with SF-295, 0.807 µM (active); with MDA-MB-231, 13.1 µM (inactive).
Take `O=C(CCCN1CCC2(CC1)CC(=O)N(N1CCCCCC1)C2=O)c1ccccc1`: the GI50 with IGROV-1, with Hs-578T, in the assay with RPMI-8226, with PC-3, in the assay with A549 and in the assay on M14 was > 100 µM (inactive) in each case. Moreover, the GI50 in the assay with Malme-3M, in the assay with EKVX, in the assay with NCI/ADR-RES, in the assay with UACC-62, in the assay on SK-MEL-2 and with SK-OV-3 was > 100 µM (inactive) throughout. The GI50 in the assay with OVCAR-3, in the assay with NCI-H23, in the assay with LOX IMVI, with SF-295, with MDA-MB-231 and in the assay with CAKI-1 was > 100 µM (inactive) throughout.
For `NC(=O)c1ccc(/N=N/O)nc1`, the GI50 in the assay on IGROV-1, in the assay with Hs-578T, in the assay on NCI-H460, in the assay with HCC 2998, with PC-3 and in the assay on A549 was > 100 µM (inactive) each time. Also, the GI50 is > 100 µM (inactive) in the assay on M14; 0.0755 µM (active) in the assay with Malme-3M; > 100 µM (inactive) in the assay with EKVX; > 100 µM (inactive) in the assay with NCI/ADR-RES; > 100 µM (inactive) in the assay on UACC-62; > 100 µM (inactive) with SK-OV-3. In addition, the GI50 with OVCAR-3, with NCI-H23, in the assay with SF-295, with MDA-MB-231 and in the assay on CAKI-1 was > 100 µM (inactive) each time.
